# Test results as given in patent US6767890B1, “Peptides having anti-cancer and anti-inflammatory activity” (priority 1998, dated 2004).
# “And” between values parts separate entries of the source, which are not always exact repeats. Identical values can stand only once.
# How the values were obtained:
# histamine H3 receptor = target: T1, histamine H3 receptor (Cavia porcellus, UniProt Q9JI35); assay: Histamine H3 Agonism/Antagonism, guinea pig ileum; assay type: cell-based; conditions: Peptide 30 μM, Thioperamide 0.3 μM
# T1 construct: ileum obtained from Duncan Hartley derived male or female guinea pigs; from tissue; host or cells: guinea pig ileum segment, field-stimulated
# T1 sequence (Q9JI35 whole entry): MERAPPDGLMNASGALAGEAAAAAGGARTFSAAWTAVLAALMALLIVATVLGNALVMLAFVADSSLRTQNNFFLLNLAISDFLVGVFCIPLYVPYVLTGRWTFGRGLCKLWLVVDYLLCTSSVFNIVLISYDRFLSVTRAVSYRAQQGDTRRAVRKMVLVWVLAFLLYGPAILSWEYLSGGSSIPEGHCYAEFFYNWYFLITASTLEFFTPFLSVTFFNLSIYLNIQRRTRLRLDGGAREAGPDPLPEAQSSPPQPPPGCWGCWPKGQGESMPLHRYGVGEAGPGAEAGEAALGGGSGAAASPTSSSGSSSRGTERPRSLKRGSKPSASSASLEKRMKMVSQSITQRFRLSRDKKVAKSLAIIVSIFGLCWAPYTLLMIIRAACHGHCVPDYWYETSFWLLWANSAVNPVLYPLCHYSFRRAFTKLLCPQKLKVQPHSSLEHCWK
# Protocol: A segment of ileum obtained from Duncan Hartley derived male or female guinea pigs weighing 325±25 gms and sacrificed by CO2 overexposure were used. The tissue was placed under 0.5 g tension in a 10 ml bath containing Kreb's solution pH 7.4 and pyrilamine (0.3 μM) at 32° C. and subjected to field stimulation (70% of maximum voltage, 0.1 Hz, 0.5 millisecond). Test substance (30 μM)-induced reduction of isometrically recorded contractions 50 percent or more (≧50%) within 5 minutes, relative to control 0.3 μM R-α-methylhistamine response, indicated possible histamine H3 receptor agonist activity. At a test substance concentration where no significant agonist activity was seen, ability to inhibit R-α-methylhistamine-induced response by 50 percent or more (≧50%) indicated histamine H3 receptor antagonist activity. Each concentration was tested on two separate preparations.
# Leukotriene B4 = target: T2, Leukotriene B4 (Homo sapiens, UniProt Q15722); assay: Leukotriene B4 radioligand binding; conditions: 10.0 μM; specific binding of [3H]LTB4; negative = stimulation
# T2 construct: human U937; endogenous in cells; host or cells: U937 cells
# T2 sequence (Q15722 whole entry): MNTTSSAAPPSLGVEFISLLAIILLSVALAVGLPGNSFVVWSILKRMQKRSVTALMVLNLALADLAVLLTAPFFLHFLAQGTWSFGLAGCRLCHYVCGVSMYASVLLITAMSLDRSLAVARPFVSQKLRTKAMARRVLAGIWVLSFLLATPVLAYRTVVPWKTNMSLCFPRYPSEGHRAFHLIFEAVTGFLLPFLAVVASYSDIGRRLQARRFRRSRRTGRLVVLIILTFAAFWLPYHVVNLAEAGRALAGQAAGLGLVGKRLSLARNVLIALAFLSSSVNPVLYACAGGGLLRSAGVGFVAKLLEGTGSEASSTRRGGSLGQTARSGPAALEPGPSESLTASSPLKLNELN
# Protocol: (§1) The peptide was further screened in vitro in a variety of enzyme and biochemical assays. Methods employed were adapted from the scientific literature to maximize reliability and reproducibility.
# (§2) Results presented in Table 10, “Results,” are the average of duplicate determinations, unless otherwise noted.
# (§3) Radioligand binding assays were performed under conditions described in Table 8, “Experimental Conditions.” Radioligands employed in this study are given in Table 8, and commercial sources and catalog numbers of the radioligands are provided in Table 7, “Material Sources.” Unlabeled, blocking ligands employed this study are listed in Table 8, “Experimenal Conditions,” along with the commercial sources and catalog number of the unlabeled ligand. The concurrent reference compound (control) employed in each assay is listed in Table 9, “Reference Compound Data,” along with the commercial supplier and catalog number of the compound. Where receptors have been obtained through recombinant expression techniques, the species from which the cDNA was obtained, and the type of expression system employed (mammalian, insect, bacterial) is also given Table 7.
# (§4) Maximum total binding and nonspecific binding were determined each time each assay was run. Nonspecific binding was defined as the proportion of total binding not displaced by unlabeled ligand specific for the receptor. […]
# TNF-α = TNF-α radioligand binding; set-up: species or system human; conditions: 10.0 μM; specific binding of [125I]TNF-alpha; negative = stimulation
# Protocol: as §1, §2, §3, §4
# Interleukin-6 = target: T3, Interleukin-6 (Homo sapiens, UniProt P08887); assay: Interleukin-6 radioligand binding; conditions: 10.0 μM; specific binding of [125I]Interleukin-6; negative = stimulation
# T3 construct: human U266; endogenous in cells; host or cells: U266 cells
# T3 sequence (P08887 20-468): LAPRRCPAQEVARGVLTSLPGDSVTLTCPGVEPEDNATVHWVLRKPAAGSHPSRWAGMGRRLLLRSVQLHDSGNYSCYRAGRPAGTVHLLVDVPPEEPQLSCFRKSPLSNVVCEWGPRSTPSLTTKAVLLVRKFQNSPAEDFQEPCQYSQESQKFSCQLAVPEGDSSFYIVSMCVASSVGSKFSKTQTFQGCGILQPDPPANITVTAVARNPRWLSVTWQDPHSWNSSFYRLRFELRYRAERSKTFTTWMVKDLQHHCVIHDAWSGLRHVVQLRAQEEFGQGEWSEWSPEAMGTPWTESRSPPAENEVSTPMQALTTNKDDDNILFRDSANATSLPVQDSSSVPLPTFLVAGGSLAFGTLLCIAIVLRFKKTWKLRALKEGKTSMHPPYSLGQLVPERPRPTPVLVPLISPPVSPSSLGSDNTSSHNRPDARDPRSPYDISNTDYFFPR
# Protocol: (§5) The peptide was further screened in vitro in a variety of enzyme and biochemical assays. Methods employed were adapted from the scientific literature to maximize reliability and reproducibility. The primary literature reference for each assay is listed in Table 11 opposite the results for each assay.
# as §2
# (§6) Reference compounds were tested concurrently at 5 concentrations as an integral part of each assay to ensure the validity of the results obtained. […]
# (§7) Maximum total binding and nonspecific binding were determined each time each assay was run. […]
# (§8) Where inhibition constants (Ki) are presented, the Ki values were calculated using the equation of Cheng and Prusoff (Cheng, Y., Prusoff, W. H., Biochem. Pharmacol. […], 1973) using the observed IC50 of the tested compound, the concentration of radioligand employed in the assay, and the historical values for the Kd of the ligand (obtained experimentally). Where presented, the Hill Coefficient (nH), defining the scope of the competitive binding curve, was calculated using GraphPad Prism. […] Where IC50, Ki, and/or Hill Slope data is presented without Standard Error of the Mean (SEM), data are insufficient to be quantitative, and the values presented (Ki, IC50, nH) should be interpreted with caution. […]
# [1] = system: T4, Ca++/Calmodulin Dep. PK II; assay: Ca++/Calmodulin Dep. PK II enzyme assay; assay type: biochemical, rat; conditions: 100.0 μM; average of duplicate; negative = stimulation
# T4 construct: other: 100.0 μM; average of duplicate; negative = stimulation
# Protocol: as §5, §2
# Reference compounds were tested concurrently at 5 concentrations as an integral part of each assay to ensure the validity of the results obtained.
# (§9) Enzyme assays were performed under conditions described in Table 8, “Experimental Conditions.”. The commercial suppliers and catalog numbers of substrates employed in this study are given in Table 7, “Material Sources.” The name, commercial source, and catalog numbers of concurrent reference compounds (controls) employed in this study are given in Table 9, “Reference Compound Data.” The reaction catalyzed by each enzyme is listed in Table 8, “Experimental Conditions.”
# (§10) Biochemical assay results are presented in Table 10, as the percent inhibition of specific binding or activity, and unless noted are the average of duplicate tubes tested at each concentration.
# [2] = target: Ca++ Ch.-L, Benzothiazepine (Rattus norvegicus, UniProt P22002); assay: Ca++ Ch.-L, Benzothiazepine radioligand binding; conditions: 10.0 μM; specific binding of [3H]Diltiazem; negative = stimulation
# Chain of Ca++ Ch.-L, Benzothiazepine (P22002 whole entry): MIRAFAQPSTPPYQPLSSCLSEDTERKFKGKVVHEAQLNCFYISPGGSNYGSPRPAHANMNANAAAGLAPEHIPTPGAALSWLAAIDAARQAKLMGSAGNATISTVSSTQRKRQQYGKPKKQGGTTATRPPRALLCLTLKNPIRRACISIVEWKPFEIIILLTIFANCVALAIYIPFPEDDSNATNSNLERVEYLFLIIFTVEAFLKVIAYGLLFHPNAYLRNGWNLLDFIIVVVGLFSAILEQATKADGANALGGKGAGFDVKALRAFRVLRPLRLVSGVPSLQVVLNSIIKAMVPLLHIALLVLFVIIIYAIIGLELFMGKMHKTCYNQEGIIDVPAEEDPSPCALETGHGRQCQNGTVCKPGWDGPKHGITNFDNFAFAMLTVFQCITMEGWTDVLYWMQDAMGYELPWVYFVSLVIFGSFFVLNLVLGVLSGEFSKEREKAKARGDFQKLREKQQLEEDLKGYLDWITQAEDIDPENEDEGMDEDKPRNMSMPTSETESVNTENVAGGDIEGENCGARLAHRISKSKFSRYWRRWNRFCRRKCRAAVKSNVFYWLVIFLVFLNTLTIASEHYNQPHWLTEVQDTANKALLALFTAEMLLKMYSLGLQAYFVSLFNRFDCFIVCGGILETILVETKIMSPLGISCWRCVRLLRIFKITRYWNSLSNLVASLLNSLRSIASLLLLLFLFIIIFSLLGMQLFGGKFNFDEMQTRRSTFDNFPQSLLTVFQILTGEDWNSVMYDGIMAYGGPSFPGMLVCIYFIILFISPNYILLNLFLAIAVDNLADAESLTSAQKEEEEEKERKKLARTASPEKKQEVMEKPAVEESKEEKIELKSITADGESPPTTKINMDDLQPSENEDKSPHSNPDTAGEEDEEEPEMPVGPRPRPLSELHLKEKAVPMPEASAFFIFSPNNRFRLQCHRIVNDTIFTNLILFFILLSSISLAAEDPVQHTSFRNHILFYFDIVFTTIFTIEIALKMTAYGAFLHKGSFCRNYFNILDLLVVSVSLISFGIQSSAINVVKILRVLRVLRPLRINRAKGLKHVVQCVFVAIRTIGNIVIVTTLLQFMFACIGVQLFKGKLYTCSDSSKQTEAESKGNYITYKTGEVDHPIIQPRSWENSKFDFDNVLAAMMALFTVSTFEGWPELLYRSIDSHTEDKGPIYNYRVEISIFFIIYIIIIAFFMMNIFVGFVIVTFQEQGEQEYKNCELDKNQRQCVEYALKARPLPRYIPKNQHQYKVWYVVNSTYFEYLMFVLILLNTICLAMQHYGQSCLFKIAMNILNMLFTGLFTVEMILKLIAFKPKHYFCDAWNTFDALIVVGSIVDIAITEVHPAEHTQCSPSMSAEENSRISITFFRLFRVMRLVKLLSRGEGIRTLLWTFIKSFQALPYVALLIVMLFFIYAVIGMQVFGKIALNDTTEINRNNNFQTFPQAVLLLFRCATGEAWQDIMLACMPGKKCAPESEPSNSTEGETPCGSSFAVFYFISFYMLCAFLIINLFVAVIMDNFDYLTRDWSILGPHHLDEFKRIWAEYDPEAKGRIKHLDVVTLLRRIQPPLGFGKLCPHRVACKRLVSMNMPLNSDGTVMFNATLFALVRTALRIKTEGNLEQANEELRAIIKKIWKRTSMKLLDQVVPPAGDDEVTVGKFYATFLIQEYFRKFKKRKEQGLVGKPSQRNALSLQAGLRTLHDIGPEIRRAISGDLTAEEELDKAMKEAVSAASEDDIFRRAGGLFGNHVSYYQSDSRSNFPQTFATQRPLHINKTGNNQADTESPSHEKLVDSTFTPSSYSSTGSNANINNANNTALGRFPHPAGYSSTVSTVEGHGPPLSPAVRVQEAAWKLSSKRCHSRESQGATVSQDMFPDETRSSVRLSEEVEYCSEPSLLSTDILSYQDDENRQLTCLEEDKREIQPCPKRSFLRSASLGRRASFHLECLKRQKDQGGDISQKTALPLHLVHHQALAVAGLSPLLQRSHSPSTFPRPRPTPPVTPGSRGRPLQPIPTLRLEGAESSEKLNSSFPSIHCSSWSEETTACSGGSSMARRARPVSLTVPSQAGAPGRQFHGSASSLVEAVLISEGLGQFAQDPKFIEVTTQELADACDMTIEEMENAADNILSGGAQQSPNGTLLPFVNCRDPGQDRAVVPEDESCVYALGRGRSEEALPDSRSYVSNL
# Protocol: as §1, §2, §3, §4
# [3] = system: oxazolone-induced ear swelling; assay: Immune Suppression, Cellular (oxazolone ear thickness); assay type: in vivo, mouse; conditions: IP, Peptide 100 mg/kg × 5, Cyclophosphamide 30 mg/kg × 5
# Protocol: For in vivo assay, distilled water and saline was used as vehicle in oral and intraperitoneal administration, respectively. Dosing volume was 20 ml/kg for mice or 10 ml/kg for rats.
# Groups of 5 ICR derived male mice weighing 22±1 gms were used. The preshaved abdominal surface was sensitized by application of oxazolone 0.1 ml of 5% solution. […] After additional four days, the animals were challenged by secondary application of oxazolone (0.025 ml of 5% solution) to the right ear. After a further 24 hours, each mouse was sacrificed and ear thickness measured with a Dyer Model micrometer gauge. A 30 percent or more (≧30%) decrease relative to the vehicle control group was considered significant and indicated possible immunosuppressant activity.
# Protein Kinase C - γ = Protein Kinase C - γ (Oryctolagus cuniculus, UniProt P10829); assay: Protein Kinase C - γ enzyme assay; assay type: biochemical, rabbit; conditions: 100.0 μM; average of duplicate; negative = stimulation
# Protocol: as §1
# Unless otherwise indicated, the peptide was tested in duplicate at the concentrations indicated for each assay. Results presented in Table 10, “Results,” are the average of duplicate determinations, unless otherwise noted.
# as §9, §10
# Interleukin-1α = target: T5, Interleukin-1α (Mus musculus, UniProt P13504); assay: Interleukin-1α radioligand binding; conditions: 10.0 μM; specific binding of [125I]IL-1 alpha; negative = stimulation
# T5 construct: 3T3 cells; endogenous in cells; host or cells: Swiss 3T3 cells
# T5 sequence (P13504 20-576): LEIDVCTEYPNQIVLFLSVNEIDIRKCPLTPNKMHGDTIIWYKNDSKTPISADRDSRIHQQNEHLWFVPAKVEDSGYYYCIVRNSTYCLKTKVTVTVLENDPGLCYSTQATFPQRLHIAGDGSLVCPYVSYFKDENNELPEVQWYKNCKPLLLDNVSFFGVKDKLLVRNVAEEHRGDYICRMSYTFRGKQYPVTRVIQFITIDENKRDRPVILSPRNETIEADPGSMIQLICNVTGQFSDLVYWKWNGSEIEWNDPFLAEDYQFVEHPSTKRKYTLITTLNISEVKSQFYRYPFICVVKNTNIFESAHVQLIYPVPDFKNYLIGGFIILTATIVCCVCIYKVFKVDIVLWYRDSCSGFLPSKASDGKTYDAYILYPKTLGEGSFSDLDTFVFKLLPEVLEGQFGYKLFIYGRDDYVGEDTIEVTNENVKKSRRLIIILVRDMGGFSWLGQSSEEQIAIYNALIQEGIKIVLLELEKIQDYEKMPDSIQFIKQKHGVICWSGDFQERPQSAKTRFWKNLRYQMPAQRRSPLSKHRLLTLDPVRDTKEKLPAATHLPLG
# Protocol: as §5, §2, §6, §7, §8
# [4] = target: Ca++ Ch.-L, Dihydropyridine (Rattus norvegicus, UniProt P22002); assay: Ca++ Ch.-L, Dihydropyridine radioligand binding; conditions: 10.0 μM; specific binding of [3H]Nitrendipine; negative = stimulation
# Chain of Ca++ Ch.-L, Dihydropyridine (P22002 whole entry): as the sequence (P22002 whole entry) above
# Protocol: as §1, §2, §3, §4
substance,measurement,setting,value
LEU-PRO-PRO-SER-ARG [Peptide],"Agonism, Ave.","histamine H3 receptor; average of two preparations, R(α)-Methylhistamine 0.3 μM",4%
same,"Antagonism, Ave.",histamine H3 receptor; average of two preparations,4%
same,Antagonism,"histamine H3 receptor; individual preparation, reduction of 0.3 μM R(α)-methylhistamine-induced relaxation",7% and 0%
same,Agonism,"histamine H3 receptor; individual preparation, relaxation within 5 minutes relative to 0.3 μM R-α-methylhistamine, R(α)-Methylhistamine 0.3 μM (0.1 printed in r13)",0% and 4%
same,% Inhibition,Leukotriene B4,8%
same,% Inhibition,TNF-α,−11%
same,% Inhibition,Interleukin-6,13%
same,% Inhibition,[1],12%
same,% Inhibition,[2],18%
same,% INH.,[3]; decrease of net ear thickness relative to vehicle control,17%
same,"Thickness Net, X (group mean)",[3]; group mean,23.0 × 0.1 mm
same,Thickness Net,"[3]; individual mouse, R. Ear minus L. Ear",20 × 0.1 mm and 21 × 0.1 mm and 24 × 0.1 mm and 27 × 0.1 mm
same,Thickness R. Ear,"[3]; individual mouse, challenged right ear, 24 hours after oxazolone challenge",43 × 0.1 mm (2×) and 44 × 0.1 mm and 50 × 0.1 mm
same,Thickness L. Ear,"[3]; individual mouse, left ear",23 × 0.1 mm (2×) and 22 × 0.1 mm and 20 × 0.1 mm
same,% Inhibition,Protein Kinase C - γ,−6%
same,% Inhibition,Interleukin-1α,15%
same,% Inhibition,[4],2%
